Assay [1] concerns EGFR mutant L858R Ba/F3 cells. Kind of assay: Ba/F3 cell proliferation (Cell Titer Glo), EGFR L858R. To be noted: Mus musculus, BaF3, Ba/F3 cells with EGFR L858R, 72 hours exposure, read-out: L BaF3. The format is cell-based, murine. From the text:
(§1) The selectivity between wild-type EGER and EGFR containing one or more mutations as described herein can also be measured using cellular proliferation assays where cell proliferation is dependent on kinase activity. For example, murine Ba/F3 cells transfected with a suitable version of wild-type EGFR (such as VIII; containing a WT EGFR kinase domain), or Ba/F3 cells transfected with L858R/T790M, Del/T790M/L718Q, L858R/T790M/L718Q, L858R/T790M/C797S, Del/T790M/C797S, L858R/T790M/I941R, or Exon 19 deletion/T790M can be used.
(§2) The EGFR mutant L858R Ba/F3 cells have been previously described (Zhou, W., et al. Nature 482, 2009, 1070-1074). […]
(§3) Growth and inhibition of growth was assessed by the Cell Titer Glo assay (Promega, Madison, WI) and was performed according to the manufacturer's instructions. The Cell Titer Glo assay is a luminescence-based method used to determine the number of viable cells based on quantitation of the ATP present, which is directly proportional to the amount of metabolically active cells present. Ba/F3 cells of different EGFR genotypes were exposed to compounds for 72 hours and the number of cells used per experiment was determined empirically as has been previously established (Zhou, et al., Nature 2009). […]
On the technique in general: In ATP-based viability assays light output follows the ATP content of the culture.

Assay [2] relates to EGFR L858R/C797S Ba/F3 cells. Description: Ba/F3 cell proliferation (Cell Titer Glo), EGFR L858R/C797S. The format is cell-based, murine. The note with it: Mus musculus, BaF3, Ba/F3 cells with EGFR L858R/C797S, 72 hours exposure, read-out: L/C797S.
Excerpt: as §1, §2, §3

In the case of `C=CC(=O)Nc1cc(C(=O)Nc2nc3cccc(C)c3n2[C@@H]2CCCCN(C(C)=O)C2)cs1` [Compound 002], the EC50 in assay [1] is 110 nM; in assay [2] it was 430 nM.
As to `C=CC(=O)Nc1csc(C(=O)Nc2nc3cccc(C)c3n2[C@@H]2CCCCN(C(C)=O)C2)c1` [Compound 009], the EC50 in assay [1] came out at 62 nM; in assay [2], 173 nM.

For the origin of these results see patent publication US20230295137A1, “COVALENT EGFR INHIBITORS AND METHODS OF USE THEREOF” (DANA-FARBER CANCER INSTITUTE, INC., priority 2020, published 2023).
